Results taken from ChEMBL document CHEMBL1157422, “Phloroglucinols with antioxidant activity and xanthonolignoids from the heartwood of Hypericum geminiflorum” (J Nat Prod, 2008).
Calls of active or inactive are those of the source. The rule behind the calls is not given here.

Key:
[1] = test system: Radical scavenging activity; experiment: Antioxidant activity assessed as DPPH free radical scavenging; type: functional
Escherichia coli = experiment: Inhibition of oxygen free radical-induced DNA damage of Escherichia coli plasmid DNA pBR322 by agarose gel electrophoresis
[2] = test system: Radical scavenging activity; experiment: Antioxidant activity assessed as DPPH free radical scavenging at 300 uM; type: functional
[3] = molecular target: Xanthine dehydrogenase/oxidase (Homo sapiens, UniProt P47989); experiment: Inhibition of xanthine oxidase
Sequence of Xanthine dehydrogenase/oxidase (P47989 whole entry): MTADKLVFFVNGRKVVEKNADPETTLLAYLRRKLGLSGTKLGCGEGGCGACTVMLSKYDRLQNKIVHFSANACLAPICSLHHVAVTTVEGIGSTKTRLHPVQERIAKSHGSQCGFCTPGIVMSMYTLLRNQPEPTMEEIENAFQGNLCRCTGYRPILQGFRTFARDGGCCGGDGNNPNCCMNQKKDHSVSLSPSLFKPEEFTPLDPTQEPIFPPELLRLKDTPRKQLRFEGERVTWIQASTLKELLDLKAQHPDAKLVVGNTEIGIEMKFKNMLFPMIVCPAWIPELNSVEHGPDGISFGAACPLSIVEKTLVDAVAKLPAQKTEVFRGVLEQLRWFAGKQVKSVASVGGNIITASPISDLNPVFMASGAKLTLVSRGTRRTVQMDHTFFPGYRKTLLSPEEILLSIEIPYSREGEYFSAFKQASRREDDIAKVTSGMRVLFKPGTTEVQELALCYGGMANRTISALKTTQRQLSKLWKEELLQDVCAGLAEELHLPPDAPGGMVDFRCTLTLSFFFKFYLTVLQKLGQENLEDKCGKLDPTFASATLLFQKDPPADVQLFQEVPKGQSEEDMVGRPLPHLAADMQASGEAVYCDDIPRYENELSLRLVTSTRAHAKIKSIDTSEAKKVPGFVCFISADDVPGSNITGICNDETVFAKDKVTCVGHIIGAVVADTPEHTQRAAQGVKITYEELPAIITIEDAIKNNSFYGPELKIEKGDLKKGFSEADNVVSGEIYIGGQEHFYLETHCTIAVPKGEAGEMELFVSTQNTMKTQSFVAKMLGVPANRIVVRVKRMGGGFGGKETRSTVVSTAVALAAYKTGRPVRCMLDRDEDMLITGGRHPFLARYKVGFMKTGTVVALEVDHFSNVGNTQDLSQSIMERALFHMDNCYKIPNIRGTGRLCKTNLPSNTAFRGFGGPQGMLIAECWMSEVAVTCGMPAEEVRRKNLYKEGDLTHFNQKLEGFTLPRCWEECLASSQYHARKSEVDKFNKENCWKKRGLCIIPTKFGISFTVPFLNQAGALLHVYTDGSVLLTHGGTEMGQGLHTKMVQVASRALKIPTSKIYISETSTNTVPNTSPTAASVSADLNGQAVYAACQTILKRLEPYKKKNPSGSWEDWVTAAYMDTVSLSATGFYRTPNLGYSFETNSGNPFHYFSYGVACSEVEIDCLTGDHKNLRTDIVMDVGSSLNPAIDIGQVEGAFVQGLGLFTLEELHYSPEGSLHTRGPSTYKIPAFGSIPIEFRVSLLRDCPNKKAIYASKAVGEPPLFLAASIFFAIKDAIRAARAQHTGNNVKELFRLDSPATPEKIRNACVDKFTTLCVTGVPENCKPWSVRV

`Cc1c(C)c2c(c(C)c1O)CC[C@@](C)(CCCC(C)CCCC(C)CCCC(C)C)O2` (single isomer, unassigned) [ALPHA-TOCOPHEROL] gave an IC50 [1] of 18.1 µM.
`CCC(C)C(=O)C1=C(O)[C@@](C)(CC=C(C)C)C(=O)[C@@]2(C[C@H]3[C@H](CC[C@@]3(C)O)[C@](C)(O)C2)C1=O` (some centres not stated) [HYPERIELLIPTONE HB] was tested, and the Activity (Escherichia coli) was “Active”, the inhibition [2] was 4.5% and the IC50 [3] was 42.1 µM.
In the case of `CCC(C)C(=O)C1=C(O)[C@]2(C[C@H]3[C@H](CC[C@@]3(C)O)[C@](C)(O)C2)C(=O)[C@](C)(CC=C(C)C)C1=O` (some centres not stated) [HYPERIELLIPTONE HB], the Activity (Escherichia coli) is reported as “Active”, the inhibition [2] is reported as 4.5% and the IC50 [3] is reported as 42.1 µM.
